In patent publication US10827969B2, “Breath test device and method” (EXALENZ BIOSCIENCE LTD., priority 2005, dated 2020):

How the values were obtained:
[1] = parameters: species or system subject; conditions: in vivo
Source text: One of the most common methods for determining the rate of metabolism of methacetin is to analyze the rate of metabolism of the methoxy group (CH3O) of methacetin to carbon dioxide, which is excreted in exhaled breath. To distinguish the carbon dioxide derived from methacetin from all other sources of carbon dioxide, the methoxy group is labeled with ^13C, a stable isotope of carbon. Thus, all the CO2 derived from methacetin will contain ^13C (^13CO2) in contrast to all other sources of CO2, which will contain approximately 99%^12C, and 1% ^13C, the naturally abundant isotope. Thus, the rate of excretion of ^13CO2 (normalized to ^12CO2) above background following the administration of methacetin-methoxy-^13C indicates its rate of metabolism, which relates to the hepatic cell “health” and to the functional mass of the liver.
The curve depicts the rate of metabolism of ^13C-Methacetin in % dose/hour as measured in breath. The peak of the curve (marked by the arrow) appears after 0.4 h (hours). The PDR peak height is approximately at 23.5% dose/hour.
The following are two examples that illustrate this phenomenon. […]

[2] = as known in the art; cited from earlier work
[3] = Conditions for dissolving methacetin: dissolving time; format: physicochemical; conditions: room temperature (approximately 25° C.)
Method: It was evaluated whether the thermal cycle for dissolving the API (active pharmaceutical ingredient, such as methacetin) can be eliminated from or at least lowered in the process. Cold vortexing, as well as the assistance of excipients acceptable by the international pharmaceutical regulations and capable of assisting in improving the dissolution of the API, were utilized.
Experimentation trials were performed, in order to eliminate the heating stage while dissolving the API (methacetin) in purified water.
Therefore, alternative directions for improving the API dissolution were tried. Solvents capable of dissolving the API and approvable for utilization in pharmaceutical preparations were utilized for this task.
30% by volume of the purified water of the preparation was replaced by the alternative solvent. The dissolving time of each preparation was recorded.
Therefore, a gradient of temperature was utilized to completely dissolve the methacetin in the preparation. An in-process control testing was applied at this stage. A UV specific absorbance analytical method, without further manipulation of the sample, was utilized for confirming that the solid has been completely dissolved in the preparation.

[4] = Two weeks stability of methacetin formulations (HPLC assay, appearance); format: physicochemical; conditions: 37-38 mg/100 mL methanol, room temperature, at least one week
Method: In the first three items, formulations containing 75 mg methacetin/200 mL solvent were prepared: 2-1. Formulation-1: 76.04 mg methacetin; 62.94 mg SLS; water to final volume of 200 mL. 2-2. Formulation-2: 75.87 mg methacetin; 4 mL PPG-400; water to final volume of 200 mL. 2-3. Formulation-3: 76.66 mg methacetin; 4 mL tween-80; water to final volume of 200 mL. The first three formulated solutions were stored at room temperature protected from light. The fourth solution was stored in an incubator for 3 months at 40° C. On each testing interval, the formulated samples were analyzed according to the following method: [table] The samples were diluted to a concentration of about 37 ppm (37 mg in 1000 ml) and analyzed against a standard solution at the same concentration. The standard was provided by the sponsor (Adrich 428264 batch: UI 2335). Purity of 100% was used in calculations. The methacetin sample that was used for the formulations was also used as a standard for the HPLC determination. […] The stock solution was diluted ×10 in mobile phase solution before the HPLC analysis. The assay was conducted according to Analyst SOP No. 05-001-03, and the HPLC method that was provided by the sponsor.

[5] = Decomposition of methacetin on heating in solution; format: physicochemical; conditions: heating at 80° C. for three hours
Method: There is thus provided, according to some embodiments, a method of controlled dissolution of methacetin. Methacetin seems to be stable after short term warming to <80° C. in solution. […] Therefore, according to an embodiment of the invention, a solution of methacetin may be prepared by dissolution in warm water.

Compound | PDR peak height [1] [% dose/hour] | time of appearance of the PDR peak [1] [h] | hepatic extraction ratio [2] | dissolution in water [3] | stability of methacetin stock solution [4] | methacetin decomposed [5] [%]
CC(=O)Nc1ccc(O[13CH3])cc1 [^13C-Methacetin, methacetin-methoxy-^13C] | ~23.5 | 0.4 |  |  |  | 
COc1ccc(NC(C)=O)cc1 [methacetin, N-(4-Methoxyphenyl)acetamide] |  |  | more than 0.8 | does not dissolve well | stable | 0.018
